Test [1] deals with Fusarium moniliforme (Fm). Kind of test: In vitro pathogen growth inhibition assay, Fm. Type of test: cell-based. The conditions noted are these: Fusarium verticillioides. The method in brief:
(§1)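 Value reported is the compound concentration reaching ≥90% growth inhibition, from OD readings at 24 and 48 h after blank subtraction, confirmed visually. Inoculum was spores diluted in 17% V8 medium, except Rs, using 1.5 mm mycelial plugs in ¼ PDB; actual compound concentration corrected via OD600.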

Test [2] deals with Fusarium virguliforme (Fv). As to the kind of experiment: In vitro pathogen growth inhibition assay, Fv. Type of test: cell-based. The method in brief:
as §1

In test [3] the test system is Collectotrichum graminicola (Cg). Kind of test: In vitro pathogen growth inhibition assay, Cg. Type of test: cell-based. The conditions noted are these: 48 h. The method in brief:
as §1

Test [4] deals with Mycosphaerella graminicola (synthetic Septoria tritici). As to the kind of experiment: Foliar protection test for wheat septoria leaf blotch control. Conditions: foliar spray on Triticum aestivum cv. WinterHawk, inoculated 1 hour after treatment, evaluated 16 days later. In kind it is in vivo.
A further test has as its system Diplodia maydis (Dm). Kind of test: In vitro pathogen growth inhibition assay, Dm. Type of test: cell-based. Conditions: Stenocarpella maydis, 48 h. Put shortly:
as §1

Another test relates to Puccinia triticina. Kind of test: Foliar protection test for wheat leaf rust control. Type of test: in vivo. The conditions noted are these: foliar application to wheat (Triticum aestivum cv. Winterhawk), evaluated 10 days later.
Another test deals with Botrtyis cinerea (Bc). As to the kind of experiment: In vitro pathogen growth inhibition assay, Bc. Type of test: cell-based. The conditions noted are these: 48 h. Put shortly: as §1
For test [5], the system named is Phytophthora capsici (Pc). As to the kind of experiment: In vitro pathogen growth inhibition assay, Pc. Conditions: 48 h. Type of test: cell-based. Put shortly:
as §1

The next test has as its system Septoria tritici (St). As to the kind of experiment: In vitro pathogen growth inhibition assay, St. Type of test: cell-based. Conditions: Zymoseptoria tritici, 48 h. The method in brief:
as §1

The test system of another test is Rhizoctonia solani (Rs). Kind of test: In vitro pathogen growth inhibition assay, Rs (mycelial plugs). Type of test: cell-based. The conditions noted are these: Rhizoctonia solani, 48 h. The method in brief:
as §1

The subject of test [6] is Blumeria graminis f. sp. hordei. As to the kind of experiment: Foliar protection test for barley powdery mildew control. In kind it is in vivo. Conditions: foliar spray on Hordeum vulgare cv. Perry, inoculated 24 hours after treatment, evaluated 7 days later. As to the method: Plants (Hordeum vulgare cv. Perry) were grown for 6 days in 2-inch square pots containing Metromix 200 medium amended with fertilizer. […] After inoculation with the pathogen of Blumeria graminis f. sp. hordei, plants were kept at conditions of 20 to 22° C., 70% relative humidity, and 200 uM of light to facilitate infection and disease development. […] An atomizer was used for applying the solution onto both sides of the leaves until thoroughly wetted. […] At 24 hours after treatment, the plants were moved to a cooler chamber and inoculated by shaking well-colonized, untreated stock plants above the treated plants. This allowed producing a settling cloud of spores and resulting in uniform infection. Efficacy was evaluated in 7 days later by examining leaves for colonization and growth of mildew. Table 4 lists the results of barley powdery mildew control at a compound concentration of 10 ppm or lower.

[7] abbreviates: ≥90% growth inhibition, 48 hours, vs 2% DMSO control, read-out: Compound Concentration (ppm) sufficient for ≥90% inhibition of Fm.
The mark [8] stands for this setting: ≥90% growth inhibition, 48 hours, vs 2% DMSO control, read-out: Compound Concentration (ppm) sufficient for ≥90% inhibition of Fv.
[9] abbreviates: ≥90% growth inhibition, 48 hours, vs 2% DMSO control, read-out: Compound Concentration (ppm) sufficient for ≥90% inhibition of Cg.
[10] abbreviates: ≥90% growth inhibition, 48 hours, vs 2% DMSO control, read-out: Compound Concentration (ppm) sufficient for ≥90% inhibition of Dm.
Where [11] appears, read: ≥90% growth inhibition, 48 hours, vs 2% DMSO control, read-out: Compound Concentration (ppm) sufficient for ≥90% inhibition of Bc.
The mark [12] stands for this setting: ≥90% growth inhibition, 48 hours, vs 2% DMSO control, read-out: Compound Concentration (ppm) sufficient for ≥90% inhibition of Pc.
[13] abbreviates: ≥90% growth inhibition, 48 hours, vs 2% DMSO control, read-out: Compound Concentration (ppm) sufficient for ≥90% inhibition of St.
[14] abbreviates: ≥90% growth inhibition, mycelial plugs, 48 hours, vs 2% DMSO control, read-out: Compound Concentration (ppm) sufficient for ≥90% inhibition of Rs.
Setting [15] is: concentration sufficient to ≥90% inhibition of growth, 48 hours vs 2% DMSO control, read-out: Compound Concentration (ppm) for ≥90% inhibition, Fm.
[16] abbreviates: concentration sufficient to ≥90% inhibition of growth, 48 hours vs 2% DMSO control, read-out: Compound Concentration (ppm) for ≥90% inhibition, Fv.
Setting [17] is: concentration sufficient to ≥90% inhibition of growth, 48 hours vs 2% DMSO control, read-out: Compound Concentration (ppm) for ≥90% inhibition, Cg.
The mark [18] stands for this setting: concentration sufficient to ≥90% inhibition of growth, 48 hours vs 2% DMSO control, read-out: Compound Concentration (ppm) for ≥90% inhibition, Dm.
The mark [19] stands for this setting: concentration sufficient to ≥90% inhibition of growth, 48 hours vs 2% DMSO control, read-out: Compound Concentration (ppm) for ≥90% inhibition, Bc.
Where [20] appears, read: concentration sufficient to ≥90% inhibition of growth, 48 hours vs 2% DMSO control, read-out: Compound Concentration (ppm) for ≥90% inhibition, Pc.
Where [21] appears, read: concentration sufficient to ≥90% inhibition of growth, 48 hours vs 2% DMSO control, read-out: Compound Concentration (ppm) for ≥90% inhibition, St.
The mark [22] stands for this setting: concentration sufficient to ≥90% inhibition of growth, 48 hours vs 2% DMSO control, read-out: Compound Concentration (ppm) for ≥90% inhibition, Rs.

Converted amounts (≈) assume the structure as drawn. Read-outs that look alike come from different tables or passages of the source.

In the case of `COCCCO[C@@H](Cn1c(=O)n(C(C)(C)C(=O)NC(C)C)c(=O)c2c(C)c(-n3nccn3)sc21)c1cc(F)ccc1OC` [Compound I-084, (R)-2-(1-(2-(5-fluoro-2-methoxyphenyl)-2-(3-methoxypropoxy)ethyl)-5-methyl-2,4-dioxo-6-(2H-1,2,3-triazol-2-yl)-1,4-dihydrothieno[2,3-d]pyrimidin-3 (2H)-yl)-N-isopropyl-2-methylpropanamide], the IC90 is 0.08 mg/L (≈ 0.13 µM) in [1] (≥90% inhibition, 48 hours vs 2% DMSO control, read-out: Compound Concentration (ppm) sufficient for ≥90% inhibition of growth, Fm); 0.08 mg/L (≈ 0.13 µM) in [2] (≥90% inhibition, 48 hours vs 2% DMSO control, read-out: Compound Concentration (ppm) sufficient for ≥90% inhibition of growth, Fv); 0.4 mg/L (≈ 0.649 µM) in [3] (≥90% inhibition, 48 hours vs 2% DMSO control, read-out: Compound Concentration (ppm) sufficient for ≥90% inhibition of growth, Cg); 0.08 mg/L (≈ 0.13 µM) in the test with Diplodia maydis (Dm) (≥90% inhibition, 48 hours vs 2% DMSO control, read-out: Compound Concentration (ppm) sufficient for ≥90% inhibition of growth, Dm); 0.4 mg/L (≈ 0.649 µM) with Botrtyis cinerea (Bc) (≥90% inhibition, 48 hours vs 2% DMSO control, read-out: Compound Concentration (ppm) sufficient for ≥90% inhibition of growth, Bc); above 50 mg/L in [5] (≥90% inhibition, 48 hours vs 2% DMSO control, read-out: Compound Concentration (ppm) sufficient for ≥90% inhibition of growth, Pc). The IC90 with Septoria tritici (St) (≥90% inhibition, 48 hours vs 2% DMSO control, read-out: Compound Concentration (ppm) sufficient for ≥90% inhibition of growth, St) is at least 10 mg/L; in the test with Rhizoctonia solani (Rs) (≥90% inhibition, mycelial plugs, 48 hours vs 2% DMSO control, read-out: Compound Concentration (ppm) sufficient for ≥90% inhibition of growth, Rs) it was 0.4 mg/L (≈ 0.649 µM). For the same compound, the “Septoria Leaf Blotch Control at a compound concentration of 25 ppm or lower” value in test [4] was “AA (≥85% control of wheat septoria leaf blotch)”. Moreover, in the test with Puccinia triticina, the “Wheat Leaf Rust Control at a compound concentration of 10 ppm or lower” value was “A (from 70% to 84% control of wheat leaf rust)”. Also, in test [6], the “Barley Powdery Mildew Control at a compound concentration of 10 ppm or lower” value is recorded as “AA (≥85% control of barley powdery mildew)”.

As for `CCOC(=O)c1ccc(F)cc1[C@H](Cn1c(=O)n(C(C)(C)C(=O)NC(C)C)c(=O)c2c(C)c(-n3nccn3)sc21)OCCC#N` [Compound I-335], the IC90 in test [1] (setting [7]) was 2 mg/L (≈ 3.13 µM); in test [2] (setting [8]), 2 mg/L (≈ 3.13 µM); in [3] (setting [9]), 50 mg/L (≈ 78.2 µM); with Diplodia maydis (Dm) (setting [10]) it was 50 mg/L (≈ 78.2 µM); in the test with Botrtyis cinerea (Bc) (setting [11]), 10 mg/L (≈ 15.6 µM); in test [5] (setting [12]) it was above 50 mg/L. In addition, the IC90 is above 50 mg/L in the test with Septoria tritici (St) (setting [13]) and 10 mg/L (≈ 15.6 µM) in the test with Rhizoctonia solani (Rs) (setting [14]).

For `Cc1c(-n2cccn2)sc2c1c(=O)n(C(C)(C)C(=O)NC(C)C)c(=O)n2CCc1cc(F)ccc1OCCC#N` [Compound I-336], the IC90 in test [1] (setting [15]) was 10 mg/L (≈ 17.6 µM); in test [2] (setting [16]), 10 mg/L (≈ 17.6 µM); in [3] (setting [17]), above 50 mg/L; with Diplodia maydis (Dm) (setting [18]), above 50 mg/L; with Botrtyis cinerea (Bc) (setting [19]) it was 50 mg/L (≈ 88.2 µM); in [5] (setting [20]) it was above 50 mg/L. Besides, the IC90 with Septoria tritici (St) (setting [21]) and in the test with Rhizoctonia solani (Rs) (setting [22]) was above 50 mg/L each time.

In the case of `Cc1c(-n2cccn2)sc2c1c(=O)n(C(C)(C)C(=O)NC(C)C)c(=O)n2CCc1cc(F)ccc1OCCO` [Compound I-337], the IC90 in [1] (setting [15]) is 10 mg/L (≈ 17.9 µM); in test [2] (setting [16]), 10 mg/L (≈ 17.9 µM); in [3] (setting [17]), above 50 mg/L; in the test with Diplodia maydis (Dm) (setting [18]), above 50 mg/L; in the test with Botrtyis cinerea (Bc) (setting [19]), 50 mg/L (≈ 89.7 µM); in [5] (setting [20]), above 50 mg/L. The IC90 in the test on Septoria tritici (St) (setting [21]) was above 50 mg/L; in the test with Rhizoctonia solani (Rs) (setting [22]) it was 10 mg/L (≈ 17.9 µM).

Turning to `Cc1c(-n2nccn2)sc2c1c(=O)n(C(C)(C)C(=O)NC(C)C)c(=O)n2CCc1cc(F)ccc1OC(C)C` [Compound I-338], the IC90 in test [1] (setting [7]) was 0.08 mg/L (≈ 0.144 µM); in [2] (setting [8]) it was 0.08 mg/L (≈ 0.144 µM); in test [3] (setting [9]), 10 mg/L (≈ 18 µM); with Diplodia maydis (Dm) (setting [10]), 2 mg/L (≈ 3.59 µM); in the test on Botrtyis cinerea (Bc) (setting [11]), 2 mg/L (≈ 3.59 µM); in test [5] (setting [12]) it was above 50 mg/L. Moreover, the IC90 is above 50 mg/L with Septoria tritici (St) (setting [13]) and 10 mg/L (≈ 18 µM) in the test with Rhizoctonia solani (Rs) (setting [14]).

`CCOC(=O)c1sc2c(c1C)c(=O)n(C(C)(C)C(=O)NC(C)C)c(=O)n2CCc1cc(F)ccc1OCCC#N` [Compound I-339]: the IC90 in test [1] (setting [7]) is 2 mg/L (≈ 3.49 µM); in test [2] (setting [8]), 2 mg/L (≈ 3.49 µM); in test [3] (setting [9]), above 50 mg/L; in the test with Diplodia maydis (Dm) (setting [10]) it was above 50 mg/L; in the test with Botrtyis cinerea (Bc) (setting [11]) it was 10 mg/L (≈ 17.5 µM); in [5] (setting [12]), above 50 mg/L. Moreover, the IC90 in the test on Septoria tritici (St) (setting [13]) was above 50 mg/L; in the test on Rhizoctonia solani (Rs) (setting [14]), 50 mg/L (≈ 87.3 µM).

As to `Cc1c(-n2nccn2)sc2c1c(=O)n(C(C)(C)C(=O)NC(C)C)c(=O)n2CCc1cc(F)ccc1OCCC#N` [Compound I-340], the IC90 was 2 mg/L (≈ 3.52 µM) in test [1] (setting [7]); 2 mg/L (≈ 3.52 µM) in [2] (setting [8]); 50 mg/L (≈ 88.1 µM) in test [3] (setting [9]); 50 mg/L (≈ 88.1 µM) in the test on Diplodia maydis (Dm) (setting [10]); 10 mg/L (≈ 17.6 µM) with Botrtyis cinerea (Bc) (setting [11]); above 50 mg/L in [5] (setting [12]). Further, the IC90 was above 50 mg/L in the test on Septoria tritici (St) (setting [13]) and 50 mg/L (≈ 88.1 µM) with Rhizoctonia solani (Rs) (setting [14]).

Turning to `COc1ccc(F)cc1[C@@H](CCCC#N)Cn1c(=O)n(C(C)(C)C(=O)NC(C)C)c(=O)c2c(C)c(-n3ccnn3)sc21` [Compound I-341], the IC90 (in test [1] (setting [15]); in test [2] (setting [16]); in test [3] (setting [17]); in the test with Diplodia maydis (Dm) (setting [18]); in the test on Botrtyis cinerea (Bc) (setting [19]); in test [5] (setting [20])) was above 50 mg/L each time. For the same compound, the IC90 in the test with Septoria tritici (St) (setting [21]) and in the test with Rhizoctonia solani (Rs) (setting [22]) was above 50 mg/L in each case.
